In patent US12656356B2, “Pregabalin immunoassays” (ARK Diagnostics, Inc., priority 2015, dated 2026):
Several values for one entry are separate records, joined by “and”; a condition that tells them apart may be missing. Equal entries are not always repeated.

Columns and labels:
[1] = system: anti-pregabalin antibody; test: Specificity of the homogeneous enzyme immunoassay (cross-reactivity); format: binding, rabbit; details: compound at 200 μg/mL added to pooled pregabalin-free human urine; Siemens Viva-E System
Text: Antibodies obtained using any of the disclosed techniques are screened or purified not only for their ability to react with pregabalin, but for a low cross-reactivity with potential interfering substances. “Cross-reactivity” may be determined in a quantitative immunoassay by establishing a standard curve using known dilutions of the target analyte, pregabalin. […] The cross-reactivity is the apparent concentration divided by the actual concentration multiplied by 100. […] Furthermore, the cross-reactivity can be determined in the same type of immunoassay in which the antibody will ultimately be used.
An analyzer (instrument) useful to set up the assay is Siemens Viva-E. The Siemens Viva-E® System is an automated biochemistry analyzer used by medical and toxicology laboratories to process biological fluid specimens, such as urine, cerebrospinal fluid, and most commonly, blood. […] The enzyme conjugate activity decreases upon binding to the antibody. The enzyme conjugate, which is not bound to the antibody, catalyzes the oxidation of glucose-6-phosphate. The oxidation of glucose-6-phosphate is coupled with the reduction of NAD^+ to NADH, which can be measured at 340 nm. The change in the absorbance at 340 nm can be measured spectrophotometrically. The pregabalin concentration in a urine specimen can be measured in terms of G6PDH activity. The increase in the rate at 340 nm is due to the formation of NADH and is proportional to the enzyme conjugate activity. An assay curve can be generated using pregabalin spiked into pooled human pregabalin-free urine. The assay rate increases with increasing the concentration of free drug in the sample.
The specificity of the immunoassay was evaluated by adding a compound to pooled pregabalin-free human urine samples fortified with EDTA, and NaN3 preservative and testing the samples and determining the percent cross-reactivity. Separate stock solutions of each compound were prepared in methanol. […] The percentage cross-reactivity was calculated for each compound tested.

[2] = system: antibody #10930; format: binding, rabbit

## NCC1(CC(=O)O)CCCCC1 [Gabapentin]
[1]
  % Crossreactivity: 0.019%

## C[C@H](N)C(=O)O [L-Alanine]
[1]
  % Crossreactivity: 0.004%

## N=C(N)NCCC[C@H](N)C(=O)O [L-Arginine]
[1]
  % Crossreactivity: 0.006%

## NC(=O)C[C@H](N)C(=O)O [L-Asparagine]
[1]
  % Crossreactivity: 0.004%

## N[C@@H](CC(=O)O)C(=O)O [L-Aspartic Acid]
[1]
  % Crossreactivity: 0.004%

## N[C@@H](CS)C(=O)O [L-Cysteine]
[1]
  % Crossreactivity: 0.005%

## N[C@@H](CCC(=O)O)C(=O)O [L-Glutamic Acid]
[1]
  % Crossreactivity: 0.006%

## NC(=O)CC[C@H](N)C(=O)O [L-Glutamine]
[1]
  % Crossreactivity: 0.004%

## NCC(=O)O [L-Glycine]
[1]
  % Crossreactivity: 0.005%

## N[C@@H](Cc1c[nH]cn1)C(=O)O [L-Histidine]
[1]
  % Crossreactivity: 0.007%

## CC[C@H](C)[C@H](N)C(=O)O [L-Isoleucine]
[1]
  % Crossreactivity: 0.008%

## CC(C)C[C@H](N)C(=O)O [L-Leucine, L-leucine]
[1]
  % Crossreactivity: 0.038%

## NCCCC[C@H](N)C(=O)O [L-Lysine]
[1]
  % Crossreactivity: 0.001%

## CSCC[C@H](N)C(=O)O [L-Methionine]
[1]
  % Crossreactivity: 0.031%

## N[C@@H](Cc1ccccc1)C(=O)O [L-Phenylalanine]
[1]
  % Crossreactivity: 0.006%

## O=C(O)[C@@H]1CCCN1 [L-Proline]
[1]
  % Crossreactivity: 0.004%

## N[C@@H](CO)C(=O)O [L-Serine]
[1]
  % Crossreactivity: 0.005%

## C[C@@H](O)[C@H](N)C(=O)O [L-Threonine]
[1]
  % Crossreactivity: 0.005%

## N[C@@H](Cc1c[nH]c2ccccc12)C(=O)O [L-Tryptophan]
[1]
  % Crossreactivity: 0.006%

## N[C@@H](Cc1ccc(O)cc1)C(=O)O [L-Tyrosine]
[1]
  % Crossreactivity: 0.004%

## CC(C)[C@H](N)C(=O)O [L-Valine]
[1]
  % Crossreactivity: 0.006%

## CC(C)C[C@H](CN)CC(=O)O [Pregabalin, (S)-3-(aminomethyl)-5-methylhexanoic acid]
[2]
  Reaction Rate (mA/min) Average of Duplicates: 432.5 mA/min and 344.0 mA/min and 381.5 mA/min and 407.0 mA/min
